Legend:
Type in all cases: cell-based
[1] = tested on: peak Na+ current (INa) in rat isolated pancreatic α-cells; experiment: Peak Na+ current (INa) in isolated pancreatic α-cells, perforated patch-clamp
Description: Acutely isolated pancreatic islets were allowed to recover overnight at 37° C./5% CO2 in Islet Media (RMPI 1640 supplemented with 10 mM HEPES, 1 mM sodium pyruvate, 10% FBS, 100 U/mL penicillin, 100 μg/mL streptomycin, 2 mM L-glutamine). The islets were resuspended and then centrifuged for 3 minutes at 200×g. The supernatant was discarded and 20 mL of filtered DPBS-EDTA was added (DPBS without Ca and Mg, 3 mM EDTA (G Biosciences), 0.5% BSA (Sigma), 1.5 mM dextrose (Sigma). The islets were incubated for 3 minutes at 37° C./5% CO2 and then centrifuged for 3 minutes at 200×g. The pellet was resuspended in 5 mL of pre-warmed Accutase (Sigma) and transferred into a 60 mm suspension culture dish and incubated for 3 minutes at 37° C./5% CO2. The digested islets were centrifuged for 3 minutes at 200×g to remove the accutase and the pellet was resuspended in 20 mL of room temperature DPBS-EDTA as defined above but with BSA increased to 4%. The digested islets were gently triturated 10 times with a flamed, glass Pasteur pipette and the suspension was then applied to a […] cell strainer. The resulting single cell suspension was centrifuged for 3 minutes at 200×g and the cells were resuspended in 2 mL of pre-warmed Islet Media. The number of live cells was counted and diluted to 1×10^5 with Islet Media. […]
(§1) Membrane potential and ion channel currents were recorded 24-72 hours after dispersion using the perforated patch configuration. […] Series resistance (Rs) was monitored using a voltage step from −70 mV to 0 mV (5 ms, 0.5 Hz) and was allowed to stabilize prior to beginning the experiment (Rs<30 MOhm).
(§2) The identity of the α-cell was confirmed using cell size (membrane capacitance <6 pF) and the presence of electrical activity in low (3 mM) extracellular glucose, which are hallmarks of dispersed α-cells. […] All recordings were made using pClamp 10.2 and were analyzed using Microsoft Excel 2003, Graphpad Prism7 or OriginPro7.
Recordings of ionic currents were made at 32° C. […] INa was measured using a voltage step to 0 mV (20 ms, 0.2 Hz) from a holding potential of either −70 mV or −90 mV. […]

[2] = tested on: rat isolated pancreatic α-cell; experiment: Spontaneous electrical activity of isolated pancreatic α-cells (membrane potential recording)
Description: Acutely isolated pancreatic islets were allowed to recover overnight at 37° C./5% CO2 in Islet Media (RMPI 1640 supplemented with 10 mM HEPES, 1 mM sodium pyruvate, 10% FBS, 100 U/mL penicillin, 100 μg/mL streptomycin, 2 mM L-glutamine). The islets were resuspended and then centrifuged for 3 minutes at 200×g. […] The number of live cells was counted and diluted to 1×10^5 with Islet Media. […]
as §1, §2
Recordings of membrane potential were made at 32° C. […] Representative records (30 sec) were analyzed using the event detection feature (threshold of 10 mV) to quantitate the spontaneous firing frequency and total charge movement. The membrane potential between events was measured for changes induced by the compound. […]

α-TC1 clone 9 cells = conditions: for Glucagon Secretion % Inhibition: veratridine-induced (30 μM for 1 hour), at a given concentration (not given)
Description: Voltage-dependent block (VDB) of […] was determined by whole-cell voltage-clamp recordings of sodium current using a QPatch 16× automated electrophysiological system in HEK 293 cells overexpressing Nav 1.3 and Nav 1.7 sodium channels, respectively. VDB of peak current was measured using an 8 s conditioning prepulse (to -55 mV for NaV1.3 and to −60 mV for […]) followed by a test pulse (0 mV, 20 ms). Currents are normalized to the peak current recorded in the absence of drug and expressed as percent inhibition. […] Glucagon secretion in the cells was induced by the treatment with veratridine at 30 μM for 1 hour in Krebs-Ringer buffer containing 0.1% BSA. Percent inhibition of glucagon secretion by Na channel blockers was calculated from the reduction of veratridine-induced glucagon secretion in the absence of drug.
Cells were seeded at 0.4×10^5/well in 96-well plates and allowed to recover for 1 day. The media was then changed to serum-free DMEM and incubated overnight. Cells were then treated with sodium-channel blockers in the presence of veratridine (15 μM) in Krebs-Ringer buffer containing 0.1% BSA and 3 mM glucose for 1 h. Supernatants were collected and stored at −80° C. until analysis. Glucagon levels were measured by an ELISA kit.

Structure (SMILES) | block of peak INa ([1]; 10 μM, holding potential −70 mV) | block of peak INa ([1]; 10 μM, holding potential −90 mV) | reduction of spontaneous electrical activity ([2]; 10 μM) | Glucagon Secretion % Inhibition (α-TC1 clone 9 cells) | block of peak INa ([1]; 1 μM, at −90 and -70 mV) | reduction of spontaneous electrical activity ([2]; at 0.3 μM) | reduction of veratridine-induced increase of glucagon secretion (α-TC1 clone 9 cells; veratridine 15 μM, at 3 μM)
COc1ccccc1OCC(O)CN1CCN(CC(=O)Nc2c(C)cccc2C)CC1 (racemic) [Ranolazine, ±-N-(2,6-dimethylphenyl)-4-[2-hydroxy-3-(2-methoxyphenoxy)-propyl]-1-piperazineacetamide] | 25% | 10% | 44% | 29.99% | – | – | –
FC(F)(F)Oc1ccc(-c2ccc3nnc(C(F)(F)F)n3c2)cc1 [Compound A, 6-(4-(trifluoromethoxy)phenyl)-3-(trifluoromethyl)-[1,2,4]triazolo[4,3-α]pyridine] | – | – | – | 74.17% | 40 | 75% | 70±4%
